Test system: MHCC-LM3 cells
Test: Fibronectin attachment with recombinant Agrin coat, Western blot
Assay type: cell-based, human
Conditions: Agrin depleted MHCC-LM3 cells; fibronectin supplemented with 20 μg/ml recombinant Agrin as ECM coat; 2 h post plating
Procedure: 72 h post transfections, cell lysates were analysed for indicated proteins; (b and c) show Western blot analysis of control or Agrin depleted MHCC-LM3 cells, which were serum starved overnight, trypsinized and plated on fibronectin or fibronectin supplemented with 20 μg/ml recombinant Agrin coated surface. […] Representative images under 20× magnification are shown and results quantitated using Image J software (P value=0.005). Thus, FIG. 6 validates the role of Agrin as an ECM sensor regulating focal adhesion, cell spreading and invasion to affect EMT program in HCC cell lines.
Briefly, culture plates were coated with 10 μg/ml fibronectin for 1 h at 37° C. Either control or Agrin knockdown cells (2*10^3 cells/ml) were trypsinized and plated on coated dishes. Adhered cells were analysed either by live cell imaging for morphological changes at indicated time-points or lysates were collected and subjected to Western blot analysis.

“recombinant Agrin: Pure recombinant Agrin protein obtained from MyBiosource” was tested. Which “activation of focal adhesion kinase and Arp2/3” value did it give?
The value was “substantially increased”.
